One experiment addresses CB2 receptor. As to conditions: cited from earlier work; for pKi: CB2 receptor; for Ki: pharmacophore training set, ChEMBL27 database.
Experiment [1] concerns the target T1, human CB2 receptor (Homo sapiens, UniProt P34972). In words: Radioligand binding assays at human CB2 receptor ([3H]-CP55940). As to conditions: [3H]-CP55940 0.8 nM, 90 min, 30 °C, read-out: Binding Affinities pKi (converted). The protocol: The 15 compounds were purchased from J&K Scientific Ltd. (Shanghai, China). The radioligand binding assays and functional assays to CB2 receptor were performed by Pharmaron (Beijing) upon commission. In the CB2 receptor assays, [^3H]-CP55940 was used as the radioligand; the 15 compounds were tested in radioligand binding assays at human CB2 receptor ([^3H]-CP55940). The competition binding experiments of the test compounds at ten different concentrations and [^3H]-CP55940 (0.8 nM) against CB2 receptor (2 μg/well) were performed for 90 min at 30 °C in 500 μL of assay buffer (25 mM HEPES, 10 mM MgCl2, 1 mM CaCl2, 0.5% BSA, pH 7.4).

In experiment [2] the target is T1, human CB2 receptor. In words: cAMP functional assay in Flpin-CHO-CB2 cells (antagonism of CP55940-mediated decrease in cAMP). It is filed as cell-based. The protocol:
Compounds 1, 3, 6, 7, 8, 12, and 15 were further evaluated by cAMP functional assays.
The CB2 receptor antagonistic activities of the 7 compounds were evaluated by investigating CB2-mediated cAMP production in Flpin-CHO-K1 cells functional assay. The Flpin-CHO-K1 cells that are engineered to stably express human CB2 receptor (the Flpin-CHO-CB2 cells) were cultured in the growth medium (Ham’s F12K + 10%FBS + 1×Ps + 800 ug/mL HB) at 37 °C and 5% CO2. The cells were then collected by centrifugation and resuspended in Hank’s balanced salt solution (HBSS), 0.1% bovine serum albumin (BSA), 20 mM N-(2-hydroxyethyl)-piperazine-N0-ethanesulfonic acid (HEPES), and 500 μM 3-isobutyl-1-methylxanthine (IBMX). The test compounds were serially diluted in DMSO at 2-fold dilutions of 10 concentrations ranging from 10,000 μM to 20 μM. The antagonistic activities were evaluated by assessing their ability to counteract the agonist (CP55940)-mediated decrease in cAMP accumulation. The accumulation of cAMP was determined by following the manufacturer’s instructions for a Perkin Elmer cAMP kit.

The target in experiment [3] is T2, human CB1 receptor (Homo sapiens, UniProt P21554). The experiment is described as follows: Radioligand binding assays at human CB1 receptor. Conditions: read-out: Binding affinities pKi (converted). The protocol: (§1) The binding and functional selectivity of the five compounds were tested by performing radioligand binding assays and cAMP functional assays against the CB1 receptor.
T2 sequence (P21554 whole entry): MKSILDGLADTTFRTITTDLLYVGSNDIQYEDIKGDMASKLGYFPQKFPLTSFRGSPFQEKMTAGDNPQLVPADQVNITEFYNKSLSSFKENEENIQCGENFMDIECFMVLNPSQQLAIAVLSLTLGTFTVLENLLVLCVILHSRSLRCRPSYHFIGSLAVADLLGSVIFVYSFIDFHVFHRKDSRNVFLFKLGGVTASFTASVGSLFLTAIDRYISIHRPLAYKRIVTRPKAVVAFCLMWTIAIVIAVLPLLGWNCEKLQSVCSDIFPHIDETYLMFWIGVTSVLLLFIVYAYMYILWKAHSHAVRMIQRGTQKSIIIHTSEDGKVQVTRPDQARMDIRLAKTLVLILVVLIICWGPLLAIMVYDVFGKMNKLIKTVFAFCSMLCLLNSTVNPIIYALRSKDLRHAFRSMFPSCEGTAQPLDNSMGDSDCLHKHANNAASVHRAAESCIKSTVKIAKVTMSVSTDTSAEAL

The target in experiment [4] is T2, human CB1 receptor. The experiment is described as follows: cAMP functional assay against CB1 receptor. Type of experiment: cell-based. The procedure: as §1
Where [5] appears, read: human CB2 receptor, Flpin-CHO-CB2 cells, antagonism of CP55940, read-out: cAMP Assay pIC50 (converted).
The mark [6] stands for this setting: CB1 receptor, cAMP functional assay, read-out: antagonistic activities against the CB1 receptor.
[7] abbreviates: human CB1 receptor, read-out: cAMP assay pIC50 (converted).

Read-outs that look alike come from different tables or passages of the source.

T1 sequence (P34972 whole entry): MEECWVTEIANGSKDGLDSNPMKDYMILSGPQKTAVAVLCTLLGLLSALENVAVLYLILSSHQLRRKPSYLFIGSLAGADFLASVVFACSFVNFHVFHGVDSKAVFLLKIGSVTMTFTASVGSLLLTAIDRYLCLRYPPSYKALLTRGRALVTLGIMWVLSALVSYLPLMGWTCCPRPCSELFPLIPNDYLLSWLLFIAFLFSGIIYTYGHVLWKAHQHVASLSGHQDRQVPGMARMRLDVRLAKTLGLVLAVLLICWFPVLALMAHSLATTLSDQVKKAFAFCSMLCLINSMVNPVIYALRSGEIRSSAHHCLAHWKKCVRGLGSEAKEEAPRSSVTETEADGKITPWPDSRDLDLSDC

In the case of `COc1ccc(C(=O)c2c(C)n(CCN3CCOCC3)c3cc(I)ccc23)cc1` [AM630], the pKi (usually −log10 of the Ki, conventionally taken in molar units) at CB2 receptor was 7.5.
As for `CCCCCCC1(c2cc(O)c3c(c2)OC(C)(C)[C@@H]2CC=C(C)C[C@@H]32)CCCC1` [CHEMBL108868], on CB2 receptor, the Ki was 1.91 nM.
Take `CSC(=S)N1CC2(CCCCC2)CS/C1=N\c1cccc(C(C)C)c1` [CHEMBL231719]: on CB2 receptor, the Ki was 2.5 nM.
In the case of `COc1cc(C(O)c2cccs2)cc(OC)c1-c1cc(Cl)cc(Cl)c1` (stereo not shown) [CHEMBL1076685], the Ki at CB2 receptor is 0.2 nM.
As for `CCCCCn1cc(C(=O)NC23CC4CC(CC(C4)C2)C3)c(=O)c2cc(-c3ccc(O)cc3)ccc21` [CHEMBL1215918], the Ki at CB2 receptor was 4.2 nM.
Take `C[C@@H](NS(=O)(=O)C(F)(F)F)c1ccc(S(=O)(=O)c2ccoc2S(=O)(=O)c2ccccc2F)cc1` [CHEMBL1270480]: the Ki at CB2 receptor was 4.4 nM.
In the case of `COCCn1c(C)c(C)sc1=NC(=O)C1C(C)(C)C1(C)C` [CHEMBL1668519], the Ki at CB2 receptor is 0.64 nM.
Turning to `CCOC(=O)c1c(NC(=O)C23CC4CC(CC(C4)C2)C3)sc2c1CCCC2` [CHEMBL3909238], the Ki on CB2 receptor was 2.15 nM.
In the case of `NC(=O)c1nc(Nc2ccccc2)sc1NC(=O)C12CC3CC(CC(C3)C1)C2` [Compound 1], the Ki on human CB2 receptor [1] is 1.58 µM. Moreover, at human CB2 receptor [2] (setting [5]), the IC50 is greater than 20 µM.
`COc1cc(C2CC(=O)Nc3c2c(=O)n(C)c(=O)n3C)ccc1OCc1cccc(F)c1` (stereo not shown) [Compound 2]: the Ki on human CB2 receptor [1] is greater than 100 µM.
On to `COc1ccccc1Nc1sc(C(=O)c2ccccc2)c(N)c1S(=O)(=O)c1ccccc1` [Compound 3], for which the Ki on human CB1 receptor [3] is 18.6 µM; on human CB2 receptor [1], 4.9 µM. Also, the figures for the IC50 on human CB1 receptor [4] (setting [6]) and at human CB2 receptor [2] (setting [5]) were greater than 20 µM and 0.339 µM, respectively.
Turning to `O=C(Cn1c(=O)n(Cc2ccccc2)c(=O)c2sc3ccccc3c21)NC1CCCCC1` [Compound 4], the Ki on human CB2 receptor [1] was greater than 100 µM.
On the same count and under the same terms, as for `O=C(CSc1nc2nccnc2c(=O)n1Cc1ccc2c(c1)OCO2)Nc1ccc(F)cc1` [Compound 5], the figure is 38 µM.
Consider `COc1ccc(-n2c(=O)c3c4c(sc3n(Cc3ccc(F)cc3)c2=O)CN(C(C)=O)CC4)cc1` [Compound 6], for which the Ki on human CB2 receptor [1] was 7.08 µM. Moreover, on human CB2 receptor [2] (setting [5]), the IC50 was greater than 20 µM.
As for `CC(=O)N1CCc2c(sc3c2c(=O)n(Cc2ccccc2)c(=O)n3Cc2c(F)cccc2Cl)C1` [Compound 7], the Ki on human CB1 receptor [3] was 16.6 µM; at human CB2 receptor [1], 6.61 µM. Also, the results for the IC50 at human CB1 receptor [4] (setting [7]) and on human CB2 receptor [2] (setting [5]) were 7.08 µM and 3.47 µM, respectively.
Take `Cc1cccn2c(=O)c(/C=C3\SC(=S)N(Cc4ccco4)C3=O)c(NCC3CCCO3)nc12` (stereo not shown) [Compound 8]: the Ki on human CB1 receptor [3] is 3.39 µM; at human CB2 receptor [1], 0.219 µM. The IC50 on human CB1 receptor [4] (setting [6]) is greater than 20 µM; on human CB1 receptor [4] (setting [7]) it was greater than 20 µM; at human CB2 receptor [2] (setting [5]) it was 0.117 µM. Also, on human CB2 receptor [2] (cAMP functional assays, CB2 over CB1), the “antagonistic activity towards the CB2 receptor in comparison to the CB1 receptor (selectivity)” value was “more than 100 times”.
`Cc1cc(S(=O)(=O)c2cc3cc(C(C)(C)C)cc(O)c3oc2=O)ccc1F` [Compound 9]: on human CB2 receptor [1], the Ki is 23.4 µM.
With `CCCCNC(=O)Cn1c(=O)n(-c2cccc(C(F)(F)F)c2)c(=O)c2sccc21` [Compound 10], the Ki at human CB2 receptor [1] was 17.8 µM.
Still for that read-out and setting: as for `CN(C(=O)c1nn(C)c2c1COc1ccccc1-2)c1cccc(C(F)(F)F)c1` [Compound 11], the figure is 13.8 µM.
Take `O=c1c2nccnc2nc(SCc2cccc(F)c2)n1Cc1cccs1` [Compound 12]: the Ki is 38 µM on human CB1 receptor [3] and 3.55 µM on human CB2 receptor [1]. Besides, the results for the IC50 on human CB1 receptor [4] (setting [6]) and on human CB2 receptor [2] (setting [5]) were greater than 20 µM and 5.62 µM, respectively.
As for `CC(=O)Nc1c2n(c3ccc(F)cc13)CC(C)(C(=O)NC1CCCC1)N(Cc1ccc(F)cc1)C2=O` (stereo not shown) [Compound 13], the Ki on human CB2 receptor [1] is 33.1 µM.
As to `Cc1ccc(C)c(CNC(=O)c2cc(-c3cccs3)nn2Cc2ccc(F)cc2)c1` [Compound 14], the Ki on human CB2 receptor [1] was 17.8 µM.
Consider `O=C(NC1CCCCCC1)c1cc(-c2cccs2)nn1Cc1ccc(F)cc1` [Compound 15], for which the Ki on human CB1 receptor [3] was 25.7 µM; on human CB2 receptor [1], 1.74 µM. Moreover, the IC50 was 4.57 µM on human CB1 receptor [4] (cAMP assay pIC50, human CB1 receptor) and 2.82 µM at human CB2 receptor [2].
As for SR144528, the pKi at CB2 receptor is 8.3–9.2.
